Results reported in patent publication US9790537B2, “Quinone-masked probes as labeling reagents for cell uptake measurements” (PROMEGA CORPORATION, priority 2014, dated 2017).

Key:
OATP1B3 = OATP1B3 (Homo sapiens, UniProt Q9NPD5); assay: Cell-based uptake transporter assay, TransportoCells OATP1B3, luminescence; settings: various concentrations, 30 min 37° C.; FIG. 13
Experimental: (§1) Stock solutions of each compound were prepared as 10 mM in methanol. Corning TransportoCells OATP1B1*1a, OATP1B3, and Control Cells were used as cell model for cell-based uptake transporter assay. Cells were cultured according to manufacturer's recommendations. Briefly, cells were thawed from liquid nitrogen storage and cultured in Dulbecco's Modified Eagle's medium supplemented with fetal bovine serum (FBS), MEM non-essential amino acid, and sodium butyrate. Cells were then plated in Corning 96-well, poly-D-Lysine white/clear plate at 100,000 cells/well in 100 μl medium and incubated for 24 hours at 37° C. with 5% CO2.
(§2) The uptake transporter assay was carried out by adding 100 μl of Hank's balanced salt solution containing 10 μM of one of the compounds to all the cells and incubated at 37° C. for 30 minutes. […] After a 20 minute incubation at room temperature (20°-25° C.), luminescence was detected on a GloMax® luminometer. […]
(§3) The uptake transporter assay was carried out by adding 100 μl of Hank's balanced salt solution containing various concentrations (See FIG. 13) of PBI-5651 to all the cells and incubated at 37° C. for 30 minutes. […] After a 20 minute incubation at room temperature (20°-25° C.), luminescence was detected on a GloMax® luminometer.

OATP1B1*1a = OATP1B1*1a (Homo sapiens, UniProt Q9Y6L6); assay: Cell-based uptake transporter assay, TransportoCells OATP1B1*1a, luminescence; settings: various concentrations, 30 min 37° C.; FIG. 13
Experimental: as §1, §2, §3

OATP1B3, sequence (Q9NPD5 whole entry): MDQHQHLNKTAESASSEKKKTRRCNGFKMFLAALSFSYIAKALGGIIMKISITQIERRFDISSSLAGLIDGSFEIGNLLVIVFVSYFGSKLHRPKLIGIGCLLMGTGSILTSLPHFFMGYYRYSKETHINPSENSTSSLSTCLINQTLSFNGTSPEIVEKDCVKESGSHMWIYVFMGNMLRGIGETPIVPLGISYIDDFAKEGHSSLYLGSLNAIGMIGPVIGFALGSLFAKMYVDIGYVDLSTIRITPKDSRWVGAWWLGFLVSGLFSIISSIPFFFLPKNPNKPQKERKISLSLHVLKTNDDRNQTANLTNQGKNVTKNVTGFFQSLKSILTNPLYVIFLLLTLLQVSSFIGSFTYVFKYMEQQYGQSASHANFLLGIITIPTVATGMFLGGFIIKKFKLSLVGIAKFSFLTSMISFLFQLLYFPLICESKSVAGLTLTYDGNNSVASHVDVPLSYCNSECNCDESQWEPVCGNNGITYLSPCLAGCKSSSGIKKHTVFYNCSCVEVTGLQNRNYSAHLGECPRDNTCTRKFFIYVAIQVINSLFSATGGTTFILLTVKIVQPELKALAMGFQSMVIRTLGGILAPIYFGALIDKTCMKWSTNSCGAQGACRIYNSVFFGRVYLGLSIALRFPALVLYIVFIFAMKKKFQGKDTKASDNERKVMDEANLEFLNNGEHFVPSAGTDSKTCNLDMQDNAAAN

CC1=C(C)C(=O)C(C(C)(C)CC(=O)N(C)CCN(CCOCCOCCC(=O)NCCCCC(NC(=O)CC[C@@H](C)[C@H]2CC[C@H]3[C@@H]4[C@@H](O)C[C@@H]5C[C@H](O)CC[C@]5(C)[C@H]4CC[C@]23C)C(=O)O)C(=O)Oc2ccc3nc(C4=NC(C(=O)O)CS4)sc3c2)=C(C)C1=O (stereo partly drawn) [PBI-5651, 2-(6-((((20R)-15-carboxy-20-((3R,5S,7S,8R,9S,10S,13R,14S,17R)-3,7-dihydroxy-10,13-dimethylhexadecahydro-1H-cyclopenta[a]phenanthren-17-yl)-9,17-dioxo-3,6-dioxa-10,16-diazahenicosyl)(2-(N,3-dimethyl-3-(2,4,5-trimethyl-3,6-dioxocyclohexa-1,4-dien-1-yl)butanamido)ethyl)carbamoyl)oxy)benzo[d]thiazol-2-yl)-4,5-dihydrothiazole-4-carboxylic acid]
response of luminescence (RLU) to compound concentration (OATP1B3): dynamic response of luminescence
response of luminescence (RLU) to compound concentration (OATP1B1*1a): dynamic response of luminescence
